Data as given in patent publication US20020137173A1, “Membrane-associated sphingomyelinase derived from bovine brain, isolation method therefor and anti-sphingomyelinase monoclonal anitibody” (priority 2001, published 2002).
“Also recorded” adds a separate entry of the source. Read-outs that look alike come from different tables or passages of the source. One block for each compound: values may come before it.

What was measured:
[1] = system: N-mSMase ε; test: N-mSMase activity assay: hydrolysis of [N-methyl-14C]sphingomyelin with added cations, reducing agents or surfactants; type: biochemical, bovine; details: for influence of glutathione-like agents on N-mSMase ε activity: 1, 3, 5 or 10 mM; for influence of reducing agents on N-mSMase ε activity: 0.5-10 mM
Protocol: (§1) After being dried with a nitrogen stream, [N-methyl-^14C]sphingomyelin (choline residue labeled with ^14C) was suspended in ethanol. 10 μl of a sample was mixed with 100 μl of a reaction solution (10 mM MgSO4, 50 μM [N-methyl-^14C]sphingomyelin (c.a. 60,000 cpm), 2 mM sodium deoxycholate, 100 mM Tris-HCl (pH 7.0)) and incubated at 37° C. for 30 min. Addition of 320 μl of a mixture of chloroform/methanol (1:1 volume ratio) and 30 μl of 2N hydrochloride stopped the reaction. After vortexing and centrifuging the resulting mixture at 10,000× g, 200 μl of the aqueous layer was mixed with 2.5 ml of a scintillation cocktail, such as that manufactured by Packard Instrument Co., U.S.A., identified as “Insta gel-XF”, followed by measuring the radioactivity with the aid of a Packard Tri-carb liquid β-scintillation counter.
In order to examine the dependency of N-mSMase ε activity on Mg^2+, Fraction B obtained in Step 6 of Example 1 was desalted by being applied to a PD-10 column (Sephadex G-25, Pharmacia Biotechnology Co., Sweden) For use, the column was equilibrated twice with distilled water, in advance. The desalted protein fraction (corresponding to protein 10 ng) was measured for N-mSMase ε activity in the presence of […] of MgCl2 in the manner described in Experimental Example 1.
An examination was made of the influence of other cations, such as Ca^2+, Fe^3+, Fe^2+, Zn^2+, Cu^2+ and […] on the activity of N-mSMase ε. To a solution containing the desalted protein fraction (corresponding to protein 10 ng) obtained in C and 5 mM MgCl2, CaCl2, FeCl3, FeCl2, ZnCl2 or CuCl2 was added to yield a final concentration of 0.01, 0.02, 0.05, 0.1, 0.25 or 0.5 mM, followed by the measurement of N-mSMase ε activity in accordance with the procedure of Experimental Example 1.
After the addition of 10 μl of [N-methyl-^14C]sphingomyelin, the N-mSMase activity was measured according to the procedure of Experimental Example 1. For comparison, a Tris-HCl buffer containing no reducing agents was used as a control. The N-mSMase ε activity influenced by the reducing agents was expressed as a percentage relative to the control.
After being treated with 1, 3, 5 or 10 mM of GSSG, cystein, cystein-glycine or γ-glutaric acid-cystein, the activity of N-mSMase ε was measured in the same manner.
Sodium deoxycholate and Triton X-100 were selected as surfactant5 to be tested. The protein fraction obtained in C (corresponding to 10 ng of protein) was measured for N-mSMase ε activity in reaction solutions containing 0.5, 1, 2 and 5 mM of sodium deoxycholate, respectively, in accordance with the procedure of Experimental Example 1. In the case of Triton X-100, it was prepared at concentrations of 0.05, 0.01, 0.5 and 0.1%.

[2] = system: partially purified N-mSMase from rat brain; details: Liu et al., J. Biol. Chem. 273, 34472-34479; cited from earlier work
[3] = Kinetic analysis (Lineweaver-Burk), substrate specificity and optimum pH of the purified enzyme; type: biochemical, bovine; details: 0.4, 1.0 and 2.0 mM sodium deoxycholate
Protocol: as §1
The N-mSMase ε prepared in Step 6 of Example 1 was subjected to Lineweaver-Burk analysis. In this regard, enzyme N-mSMase ε was used at amounts of 10 ng or less with the substrate sphingomyelin varying, in concentration, from 6.25 to 100 μM.
Separately, the same Lineweaver-Burk analysis was carried out, but in the presence of 0.4, 1.0 and 2.0 mM sodium deoxycholate. […]

[4] = desalted protein fraction (10 ng), 5 mM MgCl2, chloride salts 0.01-0.5 mM, read-out: IC50, inhibition of enzyme activity (hydrolysis of sphingomyelin) by cations

activity of N-mSMase ε with increasing glutathione concentration up to 3 mM ([1]; glutathione up to 3 mM): increases
IC50 ([1]; read-out: IC50, inhibition of sphingomyelinase activity by glutathione, glutathione above 3 mM, preincubation 37° C. 10 min, Tris-HCl pH 7.5): 8000 µM
Compound: N[C@@H](CCC(=O)N[C@@H](CS)C(=O)NCC(=O)O)C(=O)O [glutathione]
activity of N-mSMase ε at 10 mM glutathione ([1]; glutathione 10 mM): fully inhibited; also recorded: completely inhibited

IC50 [1, 4]: 28 µM
Compound: [Cl][Cu][Cl] [Cu^2+, CuCl2]

Compound: N[C@@H](CS)C(=O)O [cystein]
influence of glutathione-like agents on N-mSMase ε activity [1]: inhibited; also recorded: reduction in the activity

dependency of N-mSMase ε activity on Mg2+ ([1]; 1, 5, 10 and 25 mM MgCl2, desalted fraction B): Mg^2+-concentration dependent
Compound: [Cl-].[Cl-].[Mg+2] [Mg^2+, MgCl2]

Compound: N[C@@H](CCC(=O)N[C@@H](CS)C(=O)O)C(=O)O [γ-glutaric acid-cystein]
influence of glutathione-like agents on N-mSMase ε activity [1]: inhibited; also recorded: reduction in the activity

Compound: phosphatidylserine
effect on the activity of partially purified rat brain N-mSMase [2]: promoted

IC50 [1, 4]: 32 µM
Compound: [Cl-].[Cl-].[Zn+2] [Zn^2+, ZnCl2]

influence on the activity of N-mSMase ε ([1]; concentration of 0.5 mM or less, 5 mM MgCl2): no influence
Compound: [Ca+2].[Cl-].[Cl-] [Ca^2+, CaCl2]

Compound: oxidized glutathione [GSSG]
influence of glutathione-like agents on N-mSMase ε activity [1]: inhibited; also recorded: reduction in the activity

Compound: sodium deoxycholate
effect on the Km value of N-mSMase ε [3]: could not change

influence of reducing agents on N-mSMase ε activity ([1]; preincubation 37° C. 10 min): not inhibited
Compound: O[C@H](CS)[C@H](O)CS (racemic) [DTT, dithiothreitol]
effect on the activity of partially purified rat brain N-mSMase [2]: promoted
influence of reducing agents on N-mSMase ε activity ([1]; preincubation 37° C. 10 min, listed as dithiothreitol): neither dithiothreitol nor 2-mercaptoethanol has any influence

Compound: OCCS [2-mercaptoethanol]
influence of reducing agents on N-mSMase ε activity ([1]; preincubation 37° C. 10 min): not inhibited; also recorded: neither dithiothreitol nor 2-mercaptoethanol has any influence
